Where “and” joins values, the source holds several entries; their conditions need not be identical. Equal values may be shown once. Each block holds one compound with its values, some of them ahead of it.
How the values were obtained:
FFA1 = FFA1 (Homo sapiens, UniProt O14842); test: Ca2+ mobilisation (Fura2) in Flp-In T-REx 293 cells expressing Nluc-FFA1, FFA1-Nluc or untagged FFA1; format: cell-based; design: expressed in transfected cells; details: NR = No response; for pEC50: Ca2+ data, mean±SEM; for EMax: percentage of response to 10 μM T360
Chain of FFA1 (O14842 whole entry): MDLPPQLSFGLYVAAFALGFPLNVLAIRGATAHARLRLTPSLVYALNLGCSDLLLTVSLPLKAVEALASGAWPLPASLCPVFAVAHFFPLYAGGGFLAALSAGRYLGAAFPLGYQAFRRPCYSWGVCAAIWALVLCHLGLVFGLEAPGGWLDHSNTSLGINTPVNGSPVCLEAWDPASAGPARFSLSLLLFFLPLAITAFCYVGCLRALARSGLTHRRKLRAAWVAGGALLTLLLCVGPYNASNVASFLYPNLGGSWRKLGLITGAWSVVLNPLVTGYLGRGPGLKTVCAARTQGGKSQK
Experimental: Nluc-FFA1, FFA1-Nluc or untagged FFA1 Flp-In T-REx 293 cells were plated at 50,000 cells per well in poly-D-lysine coated black clear bottom 96-well plates. Cells were then cultured for 24 h until reaching confluency before culture medium was replaced with medium containing 100 ng/mL of doxycycline to induce receptor expression. Cells were cultured for a further 24 h before the assay. On the day of the assay culture medium was removed and replaced with medium containing 3 μM Fura2-AM Ca^2+ dye. […] Fura2 fluorescent emission at 520 nm following excitation with each of 340 and 380 nm was measured in regular intervals both before and after adding test compounds for a total of 90 s per well. Calcium responses were determined by taking the peak 340/380 ratio after first subtracting the ratios obtained prior to addition of test compound.

FFA1-Nluc = FFA1-Nluc (Homo sapiens, UniProt O14842); test: DISCo-BRET (endpoint, spectra scan, kinetics) with TUG-2591 and TUG-2597 at C terminal Nluc tagged FFA1; format: binding; design: expressed in transfected cells; details: for Specific BRET (690/540), % of control: Figure 4Aiii; for Specific BRET (690/540), % of control / Specific BRET (540/450), % of control: single replicate values (technical duplicate); for Specific BRET (540/450), % of control: Figure 4Biii
Chain of FFA1-Nluc (O14842 whole entry): as above
Experimental: Nluc-FFA1 or FFA1-Nluc Flp-In T-REx 293 cells were plated at 50,000 cells per well in poly-D-lysine coated white 96-well plates. Cells were cultured for 24 h in the plate before medium was replaced with medium containing 100 ng/mL of doxycycline to induce receptor expression. After culturing for a further 24 h, culture medium was removed, cells washed with HBSS and incubated in HBSS for 30 min. For all DISCo-BRET formats Nano-Glo substrate was then added at a 1:800 final dilution and cells incubated for 10 min. Following substrate addition experimental set up different among the three formats: endpoint, spectra scan, and kinetics.
For endpoint experiments all fluorescent and unlabelled ligands were added to the cells and incubated for 5 min at 37 °C. Luminescent emission was then measured using a CLARIOstar microplate reader with monochromator set at 450–60 nm (Nluc), 540−60 nm (NBD) and 690–100 nm (SulfoCy5). BRET ratios were then calculated as either SulfoCy5 emission divided by NBD emission, SulfoCy5 emission divided by Nluc emission, or NBD emission divided by Nluc emission.
For spectra scan experiments all indicated fluorescent and unlabelled ligands were added to the cells and cells incubated for 5 min at 37 °C. Luminescence emissions were then measured from each well of the plate from 440 nm – 740 nm with a 5 nm resolution using a CLARIOstar microplate. Luminescent emission spectra were then normalised as a percentage of the maximal Nluc emission peak ( ~ 460 nm), then subtracted with the spectrum obtained in the presence of high concentrations of ligands competing for both binding sites to obtain specific BRET binding spectra.
In kinetic DISCo-BRET experiments plates were placed directly in a CLARIOstar plate reader set to 25 °C 10 min after Nano-Glo substrate addition. Luminescent measurements were then taken with three sequential measurements per well with the monochromator set to 450–60 nm (Nluc), 540 - 60 nm (NBD) and 690–100 nm (SulfoCy5) taken in 20 or 30 s intervals. After 5 min of background measurements, the plate reader was paused for the first indicated fluorescent ligand(s) addition, before immediately returning the plate to the reader to continue luminescence readings. After 5 min, the reader was again paused to add the second fluorescent ligand (association assays) or competing ligand(s) (dissociation assays), before immediately continuing the measurements for the indicated time. Non-specific control binding was obtained by adding the indicated competing ligand(s) 5 min prior to the addition of the first fluorescent ligand.

- pEC50 (FFA1): 5.38±0.09
- EMax (FFA1): 133±5%
SMILES: COc1ccc(C(=O)N2CCN(CCNC(=O)OC(C)(C)C)CC2)c(N2CCC(COc3cccc(C(CC(=O)O)C4CC4)c3)CC2)c1.Cl (centres unmarked) [TUG-2458]

- pEC50 (FFA1): 6.62±0.15
- EMax (FFA1): 108±3%
SMILES: COc1ccc(C(=O)NCC(C)(C)CNC(=O)OC(C)(C)C)c(N2CCC(COc3cccc(C(CC(=O)O)C4CC4)c3)CC2)c1.Cl (centres unmarked) [TUG-2457]

- pEC50 (FFA1): 6.20±0.14
- EMax (FFA1): 112±10%
SMILES: COc1ccc(C(=O)N2CCC(CCNC(=O)OC(C)(C)C)CC2)c(N2CCC(COc3cccc(C(CC(=O)O)C4CC4)c3)CC2)c1.O=C(O)C(F)(F)F (centres unmarked) [TUG-2451]

Second part, the compound before the results:

SMILES: COc1ccc(C(=O)N(CCNC(=O)OC(C)(C)C)c2ccccc2)c(N2CCC(COc3cccc(C(CC(=O)O)C4CC4)c3)CC2)c1.Cl (centres unmarked) [TUG-2455]
- pEC50 (FFA1): 6.63±0.10
- EMax (FFA1): 103±12%

SMILES: CCCN1C(=O)c2ccccc2[C@@H](C(=O)O)[C@@H]1c1ccc(OCc2cccc(C(F)(F)F)c2)cc1 [TUG-2743]
- pIC50 DISCo-BRET NBD/Nluc (FFA1-Nluc; 100 nM TUG-2591 and […] TUG-2597, NC = No competition): 6.1±0.2
- pIC50 DISCo-BRET SulfoCy5/NBD (FFA1-Nluc; 100 nM TUG-2591 and […] TUG-2597, one site model, NC = No competition): 6.0±0.1
- Specific BRET (690/540), % of control (FFA1-Nluc; log[Ligand] -5): 6.26 % of control and 15.30 % of control and 0.00 % of control and 23.39 % of control and 7.57 % of control and 16.15 % of control and 4.80 % of control and 5.42 % of control
- Specific BRET (540/450), % of control (FFA1-Nluc; log[Ligand] -5): 61.42 % of control and 37.32 % of control and -37.32 % of control and -3.93 % of control and 3.93 % of control and 54.66 % of control and 43.23 % of control
- Specific BRET (690/540), % of control (FFA1-Nluc; log[Ligand] -5.5): 25.12 % of control and 40.23 % of control and 23.90 % of control and 52.64 % of control and 8.58 % of control and 35.72 % of control and 22.62 % of control and 24.58 % of control
- Specific BRET (540/450), % of control (FFA1-Nluc; log[Ligand] -5.5): 68.58 % of control and 86.33 % of control and -8.16 % of control and -102.04 % of control and 41.80 % of control and 13.93 % of control and 39.36 % of control and 39.62 % of control
- Specific BRET (690/540), % of control (FFA1-Nluc; log[Ligand] -6): 58.42 % of control and 58.33 % of control and 46.92 % of control and 53.66 % of control and 32.09 % of control and 48.03 % of control and 43.57 % of control and 46.72 % of control
- Specific BRET (540/450), % of control (FFA1-Nluc; log[Ligand] -6): 100.93 % of control and 79.17 % of control and 5.25 % of control and 9.91 % of control and 41.19 % of control and 34.87 % of control and 62.06 % of control
- Specific BRET (690/540), % of control (FFA1-Nluc; log[Ligand] -6.5): 76.32 % of control and 72.57 % of control and 71.58 % of control and 84.17 % of control and 56.21 % of control and 64.88 % of control and 65.73 % of control and 61.96 % of control
- Specific BRET (690/540), % of control (FFA1-Nluc; log[Ligand] -7): 89.22 % of control and 91.72 % of control and 94.47 % of control and 101.84 % of control and 86.98 % of control and 84.36 % of control and 91.26 % of control and 83.54 % of control
- Specific BRET (540/450), % of control (FFA1-Nluc; log[Ligand] -7): 106.08 % of control and 110.38 % of control and 76.97 % of control and 86.30 % of control and 79.83 % of control and 51.81 % of control and 67.53 % of control and 67.76 % of control
- Specific BRET (690/540), % of control (FFA1-Nluc; log[Ligand] -8): 93.65 % of control and 94.71 % of control and 131.47 % of control and 106.17 % of control and 87.89 % of control and 98.79 % of control and 100.59 % of control and 92.67 % of control
- Specific BRET (540/450), % of control (FFA1-Nluc; log[Ligand] -8): 118.40 % of control and 124.70 % of control and 235.57 % of control and 32.65 % of control and 76.75 % of control and 53.35 % of control and 80.89 % of control and 68.94 % of control
- Specific BRET (690/540), % of control (FFA1-Nluc; log[Ligand] -9): 99.33 % of control and 100.67 % of control and 26.06 % of control and 102.35 % of control and 91.83 % of control and 93.74 % of control
- Specific BRET (540/450), % of control (FFA1-Nluc; log[Ligand] -9): 129.56 % of control and 130.71 % of control and -41.98 % of control and 129.45 % of control and 107.24 % of control and 49.50 % of control and 87.02 % of control and 76.46 % of control
- 'bottom' of the IC50 curve, DISCo-BRET NBD/Nluc (FFA1-Nluc; percentage of binding obtained in the absence of competing ligand): 10%
- 'bottom' of the IC50 curve, DISCo-BRET SulfoCy5/NBD (FFA1-Nluc; percentage of binding obtained in the absence of competing ligand, 100 nM TUG-2591 and […] TUG-2597): 3.2%
- pKi DISCo-BRET SulfoCy5/NBD (FFA1-Nluc; using Kd TUG-2591 57 nM): 6.5±0.1

— article PMC12254266, “Multicolored sequential resonance energy transfer for detection of simultaneous ligand binding at G protein-coupled receptors” (Nature Communications, 2025)
